According to article PMC3763859 (ACS medicinal chemistry letters, 2013):

Tested on: SK-BR-3 cells
Assay: synergy studies with c-Src inhibitor 1 in SK-BR-3
Assay type: cell-based
Conditions: 2 μM 1, 10 nM panobinostat

Structure (SMILES): Cc1[nH]c2ccccc2c1CCNCc1ccc(/C=C/C(=O)NO)cc1 [panobinostat]
- synergy with c-Src inhibitor 1: highly synergistic
